# What was measured:
# [1] = molecular target: T1, HMalT^336-806 (arm-sensor polypeptide) (Escherichia coli, UniProt P06993); test: intrinsic tryptophan fluorescence titration, quadratic fit; format: binding; details: 20 mM Tris-HCl pH 8.0, 0.2 M KCl, 20°C; 1 μM protein; excitation 295 nm, emission 323 nm
# T1 construct: gene malT; arm-sensor fragment, residues 336-806, His-tagged; purified on Ni2+ resin then Superdex 200
# T1 sequence (P06993 336-806): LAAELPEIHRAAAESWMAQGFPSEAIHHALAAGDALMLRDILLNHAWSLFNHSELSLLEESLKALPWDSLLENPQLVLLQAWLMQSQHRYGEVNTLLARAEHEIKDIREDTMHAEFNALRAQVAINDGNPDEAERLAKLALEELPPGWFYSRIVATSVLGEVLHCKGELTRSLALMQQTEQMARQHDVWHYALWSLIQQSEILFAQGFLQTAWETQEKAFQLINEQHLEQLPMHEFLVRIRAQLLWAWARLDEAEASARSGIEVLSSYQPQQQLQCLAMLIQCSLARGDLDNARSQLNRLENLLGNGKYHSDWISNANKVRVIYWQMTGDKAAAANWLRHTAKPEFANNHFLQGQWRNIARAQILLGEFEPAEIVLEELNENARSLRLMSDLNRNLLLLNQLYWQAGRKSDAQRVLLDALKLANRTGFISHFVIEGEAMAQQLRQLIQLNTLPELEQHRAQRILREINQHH
# HMalT (His-tagged MalT) [2] = molecular target: T2, HMalT (His-tagged MalT) (Escherichia coli, UniProt P06993, Q70C/E395C); test: limited proteinase K proteolysis protection (arm-sensor hinge), SDS-PAGE quantification, binding isotherm; details: 50 mM HEPES pH 8.0, 10.1 mM Mg acetate, 0.44 mM ATP, 25°C; no reducing agent: oxidized form, C70-C395 disulfide locks NOD closed; full saturation assumed at 50 mM; read-out: KD (apparent dissociation constant)
# T2 construct: full-length, His-tagged; purified on Ni2+ resin then Superdex 200; monomeric in resting form, multimerizes with maltotriose and ATP
# HMalT (His-tagged MalT) [3] = molecular target: T3, HMalT (His-tagged MalT) (Escherichia coli, UniProt P06993); test: as above; details: 50 mM HEPES pH 8.0, 10.1 mM Mg acetate, 0.44 mM ATP, 25°C; no reducing agent; full saturation assumed at 50 mM; read-out: KD (apparent dissociation constant)
# T3 construct: full-length, His-tagged; purified on Ni2+ resin then Superdex 200; monomeric in resting form, multimerizes with maltotriose and ATP
# T3 sequence (P06993 1-901): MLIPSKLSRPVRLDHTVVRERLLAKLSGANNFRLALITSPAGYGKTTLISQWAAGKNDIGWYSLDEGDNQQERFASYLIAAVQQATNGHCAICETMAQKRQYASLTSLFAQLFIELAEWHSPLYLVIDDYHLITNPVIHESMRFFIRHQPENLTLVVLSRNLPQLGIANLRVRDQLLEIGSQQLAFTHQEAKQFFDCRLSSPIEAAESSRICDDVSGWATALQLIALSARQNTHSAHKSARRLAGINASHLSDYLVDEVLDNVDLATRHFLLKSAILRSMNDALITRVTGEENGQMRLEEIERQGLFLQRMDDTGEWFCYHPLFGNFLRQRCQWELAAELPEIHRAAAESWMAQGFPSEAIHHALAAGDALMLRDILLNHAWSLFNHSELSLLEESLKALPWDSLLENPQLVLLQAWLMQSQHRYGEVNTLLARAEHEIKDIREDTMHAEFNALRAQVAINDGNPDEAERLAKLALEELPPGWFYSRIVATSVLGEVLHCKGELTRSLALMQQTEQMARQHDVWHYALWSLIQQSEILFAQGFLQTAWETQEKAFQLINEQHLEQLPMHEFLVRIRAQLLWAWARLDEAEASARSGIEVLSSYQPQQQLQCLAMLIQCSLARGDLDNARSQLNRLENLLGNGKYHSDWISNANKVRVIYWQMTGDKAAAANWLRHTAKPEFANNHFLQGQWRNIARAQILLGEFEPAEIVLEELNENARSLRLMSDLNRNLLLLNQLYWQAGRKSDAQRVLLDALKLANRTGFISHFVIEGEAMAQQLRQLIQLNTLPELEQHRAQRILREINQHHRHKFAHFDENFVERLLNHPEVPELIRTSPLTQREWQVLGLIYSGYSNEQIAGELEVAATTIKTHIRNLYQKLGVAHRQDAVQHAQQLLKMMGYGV
# HMalT (His-tagged MalT) [4] = molecular target: T2, HMalT (His-tagged MalT); test: filter-binding assay, dissociation of [α-32P]ADP complex chased by cold ADP; details: labelled compound; oxidized form (C70-C395 disulfide), no DTT, with or without 20 mM maltotriose; buffer B pH 8.0, 10 mM Mg acetate, 25°C; 1 mM cold ADP chase
# HMalT (His-tagged MalT) [5] = molecular target: T3, HMalT (His-tagged MalT); test: as above; details: labelled compound; resting form, no maltotriose; buffer B pH 8.0, 10 mM Mg acetate, 25°C; 1 mM cold ADP chase
# T2 sequence (P06993 whole entry Q70C/E395C): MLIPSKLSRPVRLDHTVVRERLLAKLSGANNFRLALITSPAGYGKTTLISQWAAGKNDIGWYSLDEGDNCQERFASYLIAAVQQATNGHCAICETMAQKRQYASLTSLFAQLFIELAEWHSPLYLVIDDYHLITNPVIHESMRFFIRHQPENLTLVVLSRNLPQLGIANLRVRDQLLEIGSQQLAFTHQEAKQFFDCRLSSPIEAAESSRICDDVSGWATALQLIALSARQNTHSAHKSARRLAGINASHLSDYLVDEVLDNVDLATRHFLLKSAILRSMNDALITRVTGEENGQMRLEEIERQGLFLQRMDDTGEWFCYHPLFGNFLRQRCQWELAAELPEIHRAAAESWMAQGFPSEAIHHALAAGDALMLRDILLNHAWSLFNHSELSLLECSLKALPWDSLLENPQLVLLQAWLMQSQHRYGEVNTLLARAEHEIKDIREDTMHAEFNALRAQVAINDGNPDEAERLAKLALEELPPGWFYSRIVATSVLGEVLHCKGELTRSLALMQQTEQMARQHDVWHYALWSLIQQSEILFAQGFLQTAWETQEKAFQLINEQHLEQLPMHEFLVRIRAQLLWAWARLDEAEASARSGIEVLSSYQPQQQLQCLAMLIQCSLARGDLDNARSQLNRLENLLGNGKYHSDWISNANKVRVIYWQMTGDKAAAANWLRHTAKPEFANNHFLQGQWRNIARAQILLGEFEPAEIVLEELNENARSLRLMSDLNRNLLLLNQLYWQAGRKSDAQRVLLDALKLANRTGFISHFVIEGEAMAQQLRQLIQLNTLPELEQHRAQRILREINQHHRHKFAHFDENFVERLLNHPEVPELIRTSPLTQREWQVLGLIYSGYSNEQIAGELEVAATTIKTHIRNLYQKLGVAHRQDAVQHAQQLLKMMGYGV
Kd [1] [µM],Kd (HMalT (His-tagged MalT) [2]) [µM],Kd (HMalT (His-tagged MalT) [3]) [µM],t1/2 (HMalT (His-tagged MalT) [4]) [h],t1/2 (HMalT (His-tagged MalT) [5]) [h],Compound
2.7 ± 1.2,2600 ± 500,131 ± 12,–,–,OC[C@H]1O[C@H](O[C@H]2[C@H](O)[C@@H](O)[C@@H](O[C@H]3[C@H](O)[C@@H](O)C(O)O[C@@H]3CO)O[C@@H]2CO)[C@H](O)[C@@H](O)[C@@H]1O (some centres unmarked) [maltotriose]
–,–,–,> 8.33,1.98 ± 0.183,Nc1ncnc2c1ncn2[C@@H]1O[C@H](COP(=O)(O)OP(=O)(O)O)[C@@H](O)[C@H]1O [ADP]

# Source: publication PMC4381067, “How ‘arm-twisting’ by the inducer triggers activation of the MalT transcription factor, a typical signal transduction ATPase with numerous domains (STAND)” (Nucleic Acids Research, 2015)
